According to paper PMC2375353, “Effective treatment of experimental U-87MG human glioblastoma in nude mice with a targeted cytotoxic bombesin analogue, AN-215” (British Journal of Cancer, 2002):

System: U-87MG human glioblastoma xenografted into nude mice
Assay: Experiment 2: growth of s.c. U-87MG xenografts, with BN receptor blockade
Assay type: in vivo, human tumour in male athymic nude mice
Details: RC-3095 200 μg i.v. 15 min before AN-215 150 nmol kg^-1
Description: Human glioblastoma cell line U-87MG was obtained from American Type Culture Collection (Manassas, VA, USA) and cultured as described ([Pinski et al, 1994]). Male athymic (Ncr nu/nu) nude mice, approximately 6-weeks-old on arrival, were obtained from the National Cancer Institute (Frederick Cancer Research and Development Center, Frederick, MD, USA), and housed in laminar air-flow cabinets under pathogen-free conditions with a 12 h light/12 h dark schedule, and fed autoclaved standard chow and water ad libitum. Xenografts were initiated by s.c. injection of 12×10^6 U-87MG cells into the right flanks of five male nude mice. Tumours resulting after 2 weeks were aseptically dissected, mechanically minced, and 3-mm^3 pieces of tumour tissue were transplanted s.c. with a trocar needle. The take rate was 100%. All experiments were performed in accordance with institutional ethical guidelines of animal care and were essentially in agreement with [UKCCCR guidelines (1998)] for the welfare of animals in experimental neoplasia.
Experiment 2 was started when U-87MG tumours had grown to 70–84 mm^3 in volume. The animals were divided into the following treatment groups: group 1 (10 mice), control, vehicle solution; group 2 (10 mice), analogue AN-215; group 3 (five mice), unconjugated mixture of the cytotoxic radical AN-201 and BN antagonist RC-3095. All compounds were injected i.v. at 150 nmol kg^−1 of BW on days 1, 10, and 17. In addition, one group of tumour-bearing mice received an i.v. injection of 200 μg of BN antagonist RC-3095 15 min before each administration of AN-215 at a dose of 150 nmol kg^−1 of BW on days 1, 10 and 17 as in the case of group 2. The experiment was terminated on day 20 as described above.
Data are expressed as mean±s.e. Differences between mean values were evaluated by two-tailed Student's t-test, P<0.05 being considered significant.

Substance: [D-Tpi^6,Leu^13ψ(CH2NH)Leu^14]BN (6-14) [RC-3095, reference compound]
- Antitumour effect after BN receptor blockade: attenuated the antitumour effect of the cytotoxic BN analogue AN-215
